Reference: patent US20230265151A1, “GIP/GLP1 CO-AGONIST COMPOUNDS” (priority 2020, published 2023)
Like-named read-outs stand apart in the source and are kept apart here. *1 amine or outer side, *2 acyl side, *3 side chain or, on linkers, in order; H or OH if unused. Where a SMILES comes first, the peptide text is derived from it. Side-chain parts run from the residue outwards. [ ]: non-standard residue; d: D form. The star is where a group is joined. Decanoyl(10-(4-HOOC-PhO)) = O=C(O)c1ccc(OCCCCCCCCCC(=O)*)cc1; αMePhe(2-F) = C[C@](N)(Cc1ccccc1F)C(=O)O; γGlu = O=C(O)[C@H](CCC(=O)[*:2])N[*:1]; αMeY = C[C@](N)(Cc1ccc(O)cc1)C(=O)O; αMeL = CC(C)C[C@](C)(N)C(=O)O; Orn = NCCC[C@H](N)C(=O)O; AEEA = NCCOCCOCC(=O)O; Aib = CC(C)(N)C(=O)O

Columns and labels:
[1] = biological target: T1, human Gcg receptor (hGcgR) (Homo sapiens, UniProt P47871); experiment: [125I]-Glucagon binding, SPA with membranes of HEK293 cells expressing hGcgR
T1 construct: expressed in transfected cells; crude membranes
T1 sequence (P47871 26-477): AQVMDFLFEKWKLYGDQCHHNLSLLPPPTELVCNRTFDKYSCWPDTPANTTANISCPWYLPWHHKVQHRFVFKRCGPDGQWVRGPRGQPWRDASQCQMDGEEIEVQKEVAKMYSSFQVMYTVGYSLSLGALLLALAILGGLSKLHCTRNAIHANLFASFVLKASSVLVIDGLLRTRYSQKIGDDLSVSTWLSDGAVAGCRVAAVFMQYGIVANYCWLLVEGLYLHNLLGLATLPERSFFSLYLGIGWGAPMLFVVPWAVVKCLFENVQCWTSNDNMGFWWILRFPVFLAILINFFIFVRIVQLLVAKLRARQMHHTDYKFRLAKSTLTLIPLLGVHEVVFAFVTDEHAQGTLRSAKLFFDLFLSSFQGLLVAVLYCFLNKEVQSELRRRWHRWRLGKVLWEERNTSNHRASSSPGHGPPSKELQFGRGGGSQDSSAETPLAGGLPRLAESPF

[2] = biological target: T2, human GIP receptor (hGIPR) (Homo sapiens, UniProt P48546); experiment: [125I]-GIP binding, SPA with membranes of CHO cells expressing hGIPR
T2 construct: expressed in transfected cells; crude membranes
T2 sequence (P48546 22-466): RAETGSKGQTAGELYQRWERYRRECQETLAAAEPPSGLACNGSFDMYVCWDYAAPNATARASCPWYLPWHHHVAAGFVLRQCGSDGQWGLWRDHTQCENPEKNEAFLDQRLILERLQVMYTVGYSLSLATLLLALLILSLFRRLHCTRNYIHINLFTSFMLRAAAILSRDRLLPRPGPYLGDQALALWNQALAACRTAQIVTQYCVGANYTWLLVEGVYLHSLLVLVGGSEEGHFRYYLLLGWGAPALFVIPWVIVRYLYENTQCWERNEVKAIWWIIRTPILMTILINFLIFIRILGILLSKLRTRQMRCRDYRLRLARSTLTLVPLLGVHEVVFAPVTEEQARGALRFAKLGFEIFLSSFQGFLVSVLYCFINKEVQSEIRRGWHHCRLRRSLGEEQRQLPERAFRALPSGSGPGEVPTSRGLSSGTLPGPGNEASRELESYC

hGIPR = biological target: T3, hGIPR (Homo sapiens, UniProt P48546); experiment: Functional cAMP formation (HTRF) in HEK-293 clonal cells expressing hGIPR, 0.1% bovine casein, without or with 1.0% human serum albumin; assay type: cell-based; conditions: for EC50: hGIPR EC50, nM (SEM, n), cAMP, 0.1% bovine casein (no human serum albumin), geometric mean
T3 construct: expressed in transfected cells
T3 sequence (P48546 22-466): T2 sequence (P48546 22-466)
Summary of the method: (§1)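 Readings of the HTRF 665/620 nm ratio, which falls as cAMP rises, were converted to nM cAMP using a standard curve after 30 min peptide exposure at 37° C.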

hGCGR = biological target: T4, hGCGR (Homo sapiens, UniProt P47871); experiment: Functional cAMP formation (HTRF) in HEK-293 clonal cells expressing hGCGR, 0.1% bovine casein, without or with 1.0% human serum albumin; assay type: cell-based; conditions: hGCGR EC50, nM (SEM, n), cAMP
T4 construct: expressed in transfected cells
T4 sequence (P47871 26-477): as the sequence (P47871 26-477) above
Summary of the method: as §1

[3] = biological target: T5, human GLP-1 receptor (hGLP-1R) (Homo sapiens, UniProt P43220); experiment: [125I]-GLP-1 binding, SPA with membranes of HEK293 cells expressing hGLP-1R
T5 construct: expressed in transfected cells; crude membranes
T5 sequence (P43220 24-463): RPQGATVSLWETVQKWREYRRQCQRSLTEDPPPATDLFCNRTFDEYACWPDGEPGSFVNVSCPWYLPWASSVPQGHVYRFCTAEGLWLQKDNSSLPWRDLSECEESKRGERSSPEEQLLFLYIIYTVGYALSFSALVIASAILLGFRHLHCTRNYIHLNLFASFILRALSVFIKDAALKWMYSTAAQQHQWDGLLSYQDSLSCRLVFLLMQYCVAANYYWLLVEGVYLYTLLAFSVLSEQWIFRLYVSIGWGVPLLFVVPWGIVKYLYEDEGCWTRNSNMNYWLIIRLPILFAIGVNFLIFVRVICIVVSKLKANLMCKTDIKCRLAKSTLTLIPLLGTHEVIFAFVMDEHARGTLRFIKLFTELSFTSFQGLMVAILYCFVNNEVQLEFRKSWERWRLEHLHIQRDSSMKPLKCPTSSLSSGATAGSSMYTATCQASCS

hGLP-1R = hGLP-1R (Homo sapiens, UniProt P43220); experiment: Functional cAMP formation (HTRF) in HEK-293 clonal cells expressing hGLP-1R, 0.1% bovine casein, without or with 1.0% human serum albumin; assay type: cell-based; design: expressed in transfected cells; conditions: for EC50: hGLP-1R EC50, nM (SEM, n), cAMP, 37° C.
hGLP-1R, sequence (P43220 24-463): as above
Summary of the method: as §1

Compound	Ki [1] [nM]	Ki [2] [nM]	Emax (hGIPR; HEK293, read-out: hGIPR Emax, % ± SEM, percent of maximal response to GIP(1-42)NH2, 37° C., 0.1% bovine casein, arithmetic mean) [%]	EC50 (hGIPR; incubated at 37° C.) [nM]	EC50 (hGCGR; incubated at 37° C., 0.1% bovine casein (no human serum albumin), geometric mean) [nM]	Ki [3] [nM]	Emax (hGIPR; HEK293, read-out: hGIPR Emax, % ± SEM, cAMP, 37° C., 0.1% bovine casein and 1.0% human serum albumin, percent of maximal response to GIP(1-42)NH2) [%]	Emax (hGIPR; HEK293, read-out: hGIPR Emax, % ± SEM, cAMP, 37° C., 0.1% bovine casein, percent of maximal response to GIP(1-42)NH2, arithmetic mean) [%]	EC50 (hGIPR; 37° C.) [nM]	EC50 (hGCGR; 37° C., 0.1% bovine casein (no human serum albumin), geometric mean) [nM]	EC50 (hGCGR; 37° C., 0.1% bovine casein and 1.0% human serum albumin, geometric mean (SEM, n)) [nM]	Emax (hGLP-1R; HEK293, read-out: hGLP-1R Emax, % ± SEM, cAMP, 37° C., 0.1% bovine casein and 1.0% human serum albumin, percent of maximal response to GLP-1(7-36)NH2) [%]	EC50 (hGLP-1R; 0.1% bovine casein (no human serum albumin), geometric mean) [nM]	EC50 (hGLP-1R; 0.1% bovine casein and 1.0% human serum albumin, geometric mean (SEM, n)) [nM]
CC[C@H](C)[C@H](NC(=O)[C@H](CC(C)C)NC(=O)[C@](C)(Cc1ccc(O)cc1)NC(=O)[C@H](CCCCNC(=O)COCCOCCNC(=O)COCCOCCNC(=O)CC[C@H](NC(=O)CCCCCCCCCOc1ccc(C(=O)O)cc1)C(=O)O)NC(=O)[C@@H](NC(=O)[C@H](Cc1ccccc1)NC(=O)[C@H](CCC(=O)O)NC(=O)C(C)(C)NC(=O)[C@H](CCC(N)=O)NC(=O)[C@H](C)NC(=O)[C@H](CCCCNC(=O)COCCOCCNC(=O)COCCOCCNC(=O)CC[C@H](NC(=O)CCCCCCCCCOc1ccc(C(=O)O)cc1)C(=O)O)NC(=O)[C@H](CCCN)NC(=O)[C@H](CC(=O)O)NC(=O)[C@H](CC(C)C)NC(=O)[C@](C)(CC(C)C)NC(=O)[C@@H](NC(=O)[C@H](CO)NC(=O)[C@H](Cc1ccncc1)NC(=O)[C@H](CC(=O)O)NC(=O)[C@H](CO)NC(=O)[C@@H](NC(=O)[C@](C)(Cc1ccccc1F)NC(=O)[C@@H](NC(=O)CNC(=O)[C@H](CCC(=O)O)NC(=O)C(C)(C)NC(=O)[C@@H](N)Cc1ccc(O)cc1)[C@@H](C)O)[C@@H](C)O)[C@@H](C)CC)[C@@H](C)CC)C(=O)N[C@@H](CCC(=O)O)C(=O)NCC(=O)NCC(=O)N1CCC[C@H]1C(=O)N[C@@H](CO)C(=O)N[C@@H](CO)C(=O)NCC(=O)N[C@@H](C)C(=O)N1CCC[C@H]1C(=O)N1CCC[C@H]1C(=O)N1CCC[C@H]1C(=O)N[C@@H](CO)C(N)=O [Example 128]	> 955	0.0314	98.5 ± 2.47	0.0232	> 9950	–	–	–	–	–	–	–	–	–
CC[C@H](C)[C@H](NC(=O)[C@H](CC(C)C)NC(=O)[C@](C)(Cc1ccc(O)cc1)NC(=O)[C@H](CCCCNC(=O)COCCOCCNC(=O)COCCOCCNC(=O)CC[C@H](NC(=O)CCCCCCCCCOc1ccc(C(=O)O)cc1)C(=O)O)NC(=O)[C@@H](NC(=O)[C@H](Cc1ccccc1)NC(=O)[C@H](CCC(=O)O)NC(=O)C(C)(C)NC(=O)[C@H](CCC(N)=O)NC(=O)[C@H](C)NC(=O)[C@H](CCC(N)=O)NC(=O)[C@H](CCCN)NC(=O)[C@H](CC(=O)O)NC(=O)[C@H](CC(C)C)NC(=O)[C@](C)(CC(C)C)NC(=O)[C@@H](NC(=O)C(C)(C)NC(=O)[C@@H](NC(=O)[C@H](CC(=O)O)NC(=O)[C@H](CO)NC(=O)[C@@H](NC(=O)[C@](C)(Cc1ccccc1F)NC(=O)[C@@H](NC(=O)CNC(=O)[C@H](CCC(=O)O)NC(=O)C(C)(C)NC(=O)[C@@H](N)Cc1ccc(O)cc1)[C@@H](C)O)[C@@H](C)O)C(C)C)[C@@H](C)CC)[C@@H](C)CC)C(=O)N[C@@H](CCCCNC(=O)COCCOCCNC(=O)COCCOCCNC(=O)CC[C@H](NC(=O)CCCCCCCCCOc1ccc(C(=O)O)cc1)C(=O)O)C(=O)NCC(=O)NCC(=O)N1CCC[C@H]1C(=O)N[C@@H](CO)C(=O)N[C@@H](CO)C(=O)NCC(=O)N[C@@H](C)C(=O)N1CCC[C@H]1C(=O)N1CCC[C@H]1C(=O)N1CCC[C@H]1C(=O)N[C@@H](CO)C(N)=O [Example 446] (H-Y[Aib]EGT[αMePhe(2-F)]TSDV[Aib]I[αMeL]LD[Orn]QAQ[Aib]EFIK([AEEA-AEEA-γGlu-Decanoyl(10-(4-HOOC-PhO))])[αMeY]LIK([AEEA-AEEA-γGlu-Decanoyl(10-(4-HOOC-PhO))])GGPSSGAPPPS-NH2)	109	–	–	–	–	0.382	97	105	0.0164	> 9950	> 9950	105	0.162	33.5
